What is called IC50 is the concentration that inhibits the measured activity by half.

The target of this assay is T1, Bcl-XL (Homo sapiens, UniProt Q07817).
T1 construct: GST tagged Bcl-XL ΔC25 protein (0.6 nM Final concentration)
Nature of the assay: Alphascreen competition assay, GST tagged Bcl-XL with biotinylated Bim BH3-26 peptide. It counts as binding. The conditions noted are these: GST tagged Bcl-XL ΔC25 protein 0.6 nM, biotinylated Bim BH3-26 peptide 5.0 nM, read-out: IC50 against Bcl-XL. An excerpt: The following example describes the measurement of competition of compounds of the invention with Bim26-mer for a Bcl-2 homologue binding site.
Alphascreen (Amplified Luminescent Proximity Homogenous Assay) is a bead based technology which measures the interaction between molecules. The assay consists of two hydrogel coated beads which, when brought into close proximity by a binding interaction, results in the transfer of singlet oxygen from a donor bead to an acceptor bead.
Upon binding and excitation with laser light at 680 nm, a photosensitizer in the donor bead converts ambient oxygen to a more excited singlet state. This singlet oxygen then diffuses and reacts with a chemiluminescer in the acceptor bead. Fluorophores within the same bead are activated and result in the emission of light at 580-620 nm.
Screening of the compounds of the invention is performed using the Alphascreen GST (glutathione s-transferase) detection kit system. […] To this reaction mix, anti-GST coated acceptor beads and Streptavidin coated donor beads, both at 15 μg/ml Final concentration, are added and the assay mixture is incubated for 4 hours at room temperature before reading. […]
Assay buffer contains 50 mM Hepes pH 7.4, 10 mM DTT, 100 mM NaCl, 0.05% Tween and 0.1 mg/ml casein. […] Assays are performed in 384 well white Optiplates and is analyzed on the PerkinElmer Fusion alpha plate reader (Ex680, Em520-620 […]). […]
A general note: Alpha assays give light when donor and acceptor beads are brought close together.

T1 sequence (Q07817 1-208 limits assumed, species assumed): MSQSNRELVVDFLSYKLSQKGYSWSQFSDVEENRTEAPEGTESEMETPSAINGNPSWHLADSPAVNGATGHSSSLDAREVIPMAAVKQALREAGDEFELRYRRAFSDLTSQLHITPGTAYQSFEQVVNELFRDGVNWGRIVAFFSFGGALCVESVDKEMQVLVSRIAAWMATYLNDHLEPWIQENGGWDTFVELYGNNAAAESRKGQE

`O=[N+]([O-])c1cc(S(=O)(=O)Nc2ncnc3cc(-c4ccc(F)cc4)ccc23)ccc1NCCSc1ccccc1` [compound c, N-(7-(4-fluorophenyl)quinazolin-4-yl)-3-nitro-4-(2-(phenylthio)ethylamino)benzenesulfonamide]: the IC50 is 3000 nM.

The values above are taken from patent publication US20110098305A1, “ARYLSULFONAMIDE COMPOUNDS, COMPOSITIONS AND METHODS OF USE” (priority 2008, published 2011).
